# Laboratory results: patent US20250367301A1, “PHARMACEUTICAL COMPOSITION FOR PREVENTING OR TREATING TRIPLE-NEGATIVE BREAST CANCER, COMPRISING OLIGONUCLEOTIDE AS ACTIVE INGREDIENT” (INTEROLIGO CORPORATION, priority 2021, published 2025)
# Tests used:
# [1] = test system: TNBC metastasis after surgical resection; settings: after 50 days post-insertion of the drug/hydrogel patch at the resection site; mice; cited from earlier work
# [2] = test system: 4T1-Luc2 triple-negative breast cancer orthotopic tumor resection model; assay: Antitumor efficacy via intraperitoneal injection in TNBC orthotopic animal model (tumor resection model); assay type: in vivo, female Balb/c mice
# 4T1 Luc2 cell line = assay: Intracellular uptake by flow cytometry in 4T1 Luc2 cells; assay type: cell-based, mouse; settings: flow cytometry of 4T1 cells
# Experimental: In this experiment, 4T1 Luc2 cell line (ATCC, USA) was used and the cells were cultured using the same method described in 3-1-1.
# The medium was replaced with RPMI medium containing 5% FBS and treated with drugs for additional 2, 4, 6, 24 hours, and then DAPI staining was performed after the reaction was completed. The finished samples were compared using a flow cytometer (Beckman Coulter CytoFlex (3 lasers)) to measure the degree of fluorescence expression against the control cell line.
molecule,measurement,setting,value
Nc1ncnc2c1ncn2C1O[C@@H]2CO[P@@](=O)([S-])O[C@H]3[C@@H](O)[C@H](n4cnc5c(N)ncnc54)O[C@@H]3CO[P@@](=O)([S-])O[C@@H]1[C@@H]2O.[Na+].[Na+] (stereo partly shown) [STING-RR],survival rate,[1],60%
"Nc1ccn([C@@H]2O[C@H](CO)[C@@H](O)C2(F)F)c(=O)n1 [gemcitabine, 2′,2′-difluorodeoxycytidine, reference compound]",time within which all mice died (lung metastasis),"[2]; 1 mg intraperitoneal every other day, 10 times, after tumor resection, 5 mice",≤ 30 days
"(Gem)2-[TGG]4[TTG][TGG]5 (NNTGGTGGTGGTGGTTGTGGTGGTGGTGGTGG; two 5' gemcitabine; modified_base 1 OTHER; 2', 2'-difluoro deoxycytidine; modified_base 2 OTHER) [IO101L, modified oligonucleotide, two gemcitabine at the 5′ end]",mice with confirmed lung metastasis,"[2]; 2 mg intraperitoneal every other day, 10 times, after tumor resection",3 out of 7
same,inhibition of cancer metastasis compared to positive control gemcitabine,"[2]; intraperitoneal, post-TNBC tumor resection",significantly inhibited cancer metastasis
same,mice surviving until day 76,"[2]; mouse, in vivo, ip",4 out of 7
same,intracellular influx compared with the IO101L-control group,4T1 Luc2 cell line; FIG. 4,significantly superior
Cy5-(Gem)(Gem)[TGG]4[TTG][TGG]5 [Cy5-labeled IO101L],Cy5-labeled IO101L found to enter the cells,4T1 Luc2 cell line; after 24 hours,over 80%
